Test results as given in article PMC3671888 (Journal of medicinal chemistry, 2012).

Target: T1, recombinant human sGC (soluble guanylyl cyclase), α1 and β1 subunits (Homo sapiens, UniProt Q02108+Q02153)
T1 sequence (Q02108 1-690): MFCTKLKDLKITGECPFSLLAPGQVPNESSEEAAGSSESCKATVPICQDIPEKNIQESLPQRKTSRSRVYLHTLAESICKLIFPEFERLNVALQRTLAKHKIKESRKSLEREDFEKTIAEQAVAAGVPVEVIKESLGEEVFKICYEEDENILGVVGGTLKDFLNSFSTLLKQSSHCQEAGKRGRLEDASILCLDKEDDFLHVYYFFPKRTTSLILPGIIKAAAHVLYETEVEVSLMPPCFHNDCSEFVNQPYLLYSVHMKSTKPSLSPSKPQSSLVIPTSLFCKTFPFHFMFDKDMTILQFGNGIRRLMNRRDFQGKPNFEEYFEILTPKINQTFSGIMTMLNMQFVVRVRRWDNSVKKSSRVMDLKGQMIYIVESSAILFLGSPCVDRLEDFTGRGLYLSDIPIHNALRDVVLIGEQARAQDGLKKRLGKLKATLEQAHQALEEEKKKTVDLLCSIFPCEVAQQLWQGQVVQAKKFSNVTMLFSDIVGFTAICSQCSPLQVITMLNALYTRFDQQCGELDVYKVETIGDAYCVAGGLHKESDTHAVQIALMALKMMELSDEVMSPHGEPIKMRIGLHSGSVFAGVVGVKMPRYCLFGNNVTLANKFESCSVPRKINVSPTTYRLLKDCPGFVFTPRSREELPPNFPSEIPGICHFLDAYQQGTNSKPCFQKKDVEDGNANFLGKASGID
T1 sequence (Q02153 1-619): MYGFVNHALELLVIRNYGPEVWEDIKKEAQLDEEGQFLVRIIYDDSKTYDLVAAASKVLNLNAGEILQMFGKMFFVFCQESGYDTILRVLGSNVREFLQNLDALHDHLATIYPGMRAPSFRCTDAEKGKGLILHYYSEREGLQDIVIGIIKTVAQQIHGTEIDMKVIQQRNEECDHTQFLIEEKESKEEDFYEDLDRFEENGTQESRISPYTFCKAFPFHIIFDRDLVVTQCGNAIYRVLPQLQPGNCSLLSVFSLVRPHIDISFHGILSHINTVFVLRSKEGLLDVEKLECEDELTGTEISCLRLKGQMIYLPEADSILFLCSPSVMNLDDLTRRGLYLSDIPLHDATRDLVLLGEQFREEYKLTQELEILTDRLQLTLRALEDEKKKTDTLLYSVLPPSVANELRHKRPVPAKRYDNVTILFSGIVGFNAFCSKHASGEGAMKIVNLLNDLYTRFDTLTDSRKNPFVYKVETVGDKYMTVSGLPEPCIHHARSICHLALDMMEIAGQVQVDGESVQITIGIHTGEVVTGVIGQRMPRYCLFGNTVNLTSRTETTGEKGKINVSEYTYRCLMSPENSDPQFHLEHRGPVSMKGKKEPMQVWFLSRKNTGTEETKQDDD
Test: [alpha-32P]GTP to […]cGMP conversion assay
Format: biochemical
Details: read-out: EC50 [μM] ^b; activation; preincubation with compound at 25 °C

C#N.C#N.C/C1=C2/NC([C@H](CC(N)=O)[C@@]2(C)CCC(=O)NCC(C)O)[C@]2(C)N=C(/C(C)=C3N=C(/C=C4N=C1[C@@H](CCC(N)=O)C\4(C)C)[C@@H](CCC(N)=O)[C@]\3(C)CC(N)=O)[C@@H](CCC(N)=O)[C@]2(C)CC(N)=O.[Co] (stereo partly shown) [compound 1, dicyanocobinamide]
EC50: 34.2 µM
